Measurements taken from patent publication US20050164951A1, “Inhibitors for the soluble epoxide hydrolase” (The Regents of the University of California, priority 2003, published 2005).
Like-named read-outs stand apart in the source and are kept apart here. Values belong to the molecule of their own block, whether it stands above or below them.

Assays:
[1] = target: T1, rat sEH (Rattus norvegicus, UniProt P80299); assay: Relative turnover of arachidonic acid epoxides by rat sEH; format: biochemical; details: for relative substrate turnover of the epoxy arachidonates: 1:1:2 mixture of 8,9-, 11,12-, and 14,15-EET hydrolyzed to 30% by rat renal cortex cytosol; for Relative EET Turnover: Table 20, arachidonic acid epoxides with the rat sEH
T1 construct: was hydrolyzed to 30% by rat renal cortex cytosol; from tissue; host or cells: rat renal cortex cytosol
T1 sequence (P80299 1-554): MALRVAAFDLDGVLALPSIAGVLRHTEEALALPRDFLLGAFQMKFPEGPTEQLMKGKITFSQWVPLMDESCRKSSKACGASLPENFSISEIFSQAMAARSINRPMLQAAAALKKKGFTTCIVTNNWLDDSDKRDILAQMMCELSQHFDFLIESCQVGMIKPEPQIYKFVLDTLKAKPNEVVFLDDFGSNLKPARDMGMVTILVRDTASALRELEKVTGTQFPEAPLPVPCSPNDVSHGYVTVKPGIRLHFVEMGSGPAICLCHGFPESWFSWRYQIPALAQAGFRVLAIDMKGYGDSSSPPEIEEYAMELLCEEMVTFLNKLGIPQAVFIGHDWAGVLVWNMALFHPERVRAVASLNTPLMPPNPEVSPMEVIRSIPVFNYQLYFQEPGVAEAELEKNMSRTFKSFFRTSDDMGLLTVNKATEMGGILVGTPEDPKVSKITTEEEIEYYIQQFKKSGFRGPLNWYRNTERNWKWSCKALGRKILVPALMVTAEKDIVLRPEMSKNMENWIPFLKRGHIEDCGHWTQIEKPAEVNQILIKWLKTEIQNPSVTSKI
Protocol: For epoxy fatty acid hydrolysis, the soluble epoxide hydrolase prefers substrates with epoxide moieties that are more distant from the carboxyl terminal. Specifically the substrate preference decreases in the order of 14,15-EET >11,12-EET >8,9-EET >>>5,6-EET for the epoxides of arachidonic acid. Independently, the relative substrate turnover of the epoxy arachidonates were calculated at 0.1:8.1:14.3 when a 1:1:2 mixture of 8,9-, 11,12-, and 14,15-EET fatty acid was hydrolyzed to 30% by rat renal cortex cytosol. By considering the primary pharmacophore of the urea to be a transition-state analog of epoxide hydrolysis, preferred inhibitors have now been developed which incorporate long aliphatic acids. These compounds are better substrate and transition state mimics than those incorporating shorter aliphatic acids. Accordingly, optimal soluble epoxide hydrolase inhibitors can be obtained by producing compounds with aliphatic acid substituents (i.e. a tertiary pharmacophore) which are separated from the primary pharmacophore by an equivalent distance as the terminal acid is separated from the epoxide in optimal substrates. Within the enzyme active site, epoxy fatty acids have been predicted to exist in an extended or pseudo-linear confirmation. Therefore, both the epoxy fatty acids and the aliphatic acid containing urea structures were approximated as two dimensional linear representations and measurements were made on each species. The critical measurements taken were distances (in angstroms) from the carboxylate hydroxyl to the urea carbonyl and the urea nitrogens.

[2] = target: T2, mouse sEH (Mus musculus, UniProt P34914); assay: Inhibition of recombinant mouse sEH, IC50 assay with 4-nitrophenyl-trans-2,3-epoxy-3-phenylpropyl carbonate as substrate; format: biochemical; details: read-out: IC50 (μM) Mouse sEH
T2 construct: made in house; host or cells: baculovirus expression system
T2 sequence (P34914 1-554): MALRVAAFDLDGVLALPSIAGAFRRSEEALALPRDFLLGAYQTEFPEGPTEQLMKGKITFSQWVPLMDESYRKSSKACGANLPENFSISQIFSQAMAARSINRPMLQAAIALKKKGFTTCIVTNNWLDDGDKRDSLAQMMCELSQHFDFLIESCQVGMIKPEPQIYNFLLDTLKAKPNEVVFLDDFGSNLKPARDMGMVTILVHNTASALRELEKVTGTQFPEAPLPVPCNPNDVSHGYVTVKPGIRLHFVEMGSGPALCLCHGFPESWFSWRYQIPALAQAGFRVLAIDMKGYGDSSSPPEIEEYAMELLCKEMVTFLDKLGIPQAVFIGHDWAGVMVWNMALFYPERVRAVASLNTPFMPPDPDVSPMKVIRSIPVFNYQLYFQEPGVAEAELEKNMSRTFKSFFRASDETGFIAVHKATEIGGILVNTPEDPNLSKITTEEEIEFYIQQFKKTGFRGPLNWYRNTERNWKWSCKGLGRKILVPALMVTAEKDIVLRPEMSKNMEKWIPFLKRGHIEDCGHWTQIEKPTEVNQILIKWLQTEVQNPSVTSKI
Protocol: (§1) Assays were performed in triplicate. […] The curve was generated from at least three separate runs, each in triplicate, to obtain the standard deviation (SD) given in Table 1 thru Table 4.

[3] = target: T3, human sEH (Homo sapiens, UniProt P34913); assay: Inhibition of recombinant human sEH, IC50 assay with 4-nitrophenyl-trans-2,3-epoxy-3-phenylpropyl carbonate as substrate; format: biochemical
T3 construct: made in house; host or cells: baculovirus expression system
T3 sequence (P34913 1-555): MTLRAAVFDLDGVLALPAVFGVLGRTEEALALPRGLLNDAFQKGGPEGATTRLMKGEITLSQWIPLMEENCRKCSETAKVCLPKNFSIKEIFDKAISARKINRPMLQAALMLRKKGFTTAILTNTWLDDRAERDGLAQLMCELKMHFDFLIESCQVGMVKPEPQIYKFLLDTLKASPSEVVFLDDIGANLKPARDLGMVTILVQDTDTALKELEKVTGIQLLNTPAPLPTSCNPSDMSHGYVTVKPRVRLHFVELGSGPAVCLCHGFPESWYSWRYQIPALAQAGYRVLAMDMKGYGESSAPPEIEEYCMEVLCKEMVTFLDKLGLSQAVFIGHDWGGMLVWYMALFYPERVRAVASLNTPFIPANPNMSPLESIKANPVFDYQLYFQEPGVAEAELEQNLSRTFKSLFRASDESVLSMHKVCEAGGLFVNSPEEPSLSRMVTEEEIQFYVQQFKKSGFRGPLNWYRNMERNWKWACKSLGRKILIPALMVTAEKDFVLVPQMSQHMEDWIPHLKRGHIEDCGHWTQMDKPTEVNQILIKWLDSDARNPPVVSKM
Protocol: as §1

[4] = test system: mouse and human sEH; assay: sEH IC50 assay, comparisons of the text made for both enzymes or without naming the enzyme; format: biochemical
Protocol: as §1

[5] = Blood concentration after oral administration of 950 and AUDA-nBE, human pharmacokinetic profile; format: in vivo; details: see FIGS. 15-27
Protocol: FIG. 16 provides a sample preparation procedure for a pharmacokinetic study. A 5 μl whole blood sample was drawn into a capillary at a specific time point, each sample was extracted and anaylzed by LC/MS-MS. […] AUDA is the active metabolite of AUDA-nBE. […] 0.05 mg/kg. (B). 0.1 mg/kg. […] The compounds were administered at the same time in the same formulation. […] 21 mg (0.3 mg/kg) 950 and AUDA-nBE were orally administrated with starch. (B). 7 mg (0.1 mg/kg) formulated 950 and AUDA-NBE were taken with (HPMC, starch and lactose). (C). […] 950 with HPMC and Starch. (B). 950 in lactose and HPMC. […] HPMC forms a gel which slowly erodes; lactose enhances erosion at it moves through the gut and starch retards it. These formulations are combined, ball milled, and then placed in ‘0’ capsule and not compressed.

[6] = Water solubility; format: physicochemical; details: for water solubility: compared with non-functionalized lipophilic inhibitors (791, 790); for solubility relative to the corresponding cyclohexyl derivative: 772 vs. 789, 791 vs. 790, 297 vs. 686
[7] = Pharmacokinetics after oral gavage in mice; format: in vivo, mouse; details: 5 mg/kg orally
Protocol: Animals. Male Swiss Webster mice, 6 weeks-old, were obtained from Charles River (Calif., USA). […] The body weight of animals used in all the experiments ranged from 28 g to 38 g. […] Administration and measurement. […] Then the samples were centrifuged at 6000 rpm for 5 min, and the ethyl acetate layer was dried under nitrogen. The residue was reconstituted in 25 μL of methanol, and aliquots (5 μL) were injected onto the LC-MS/MS system. Analysis. Pharmacokinetics analysis was performed using SigmaPlot software system (SPSS science, Chicago, Ill.). […] AUC=a/b Where: • C=the total blood concentration at time t • a=the extrapolated zero intercept b=the apparent first-order elimination rate constant

[8] = Effect of compound 950 and of Norvasc on blood pressure; format: in vivo; details: 950 0.05 mg/Kg per day
[9] = Metabolic stability in rat hepatic microsomes with NADPH generating system; format: in vitro ADME; details: rat, microsomes
Protocol: FIG. 6 is a graph illustrating the metabolic stabilities of 1-adamantyl-3-dodecyl urea (686) and 1-cyclohexyl-3-dodecyl urea (297) in rat hepatic microsomes. Microsomes were incubated with 1 μM 686 or 297 in the presence of an NADPH generating system. Data are expressed as mean ±SD of triplicate experiments.
To evaluate the metabolic stability of these inhibitors, the microsomal and NADPH dependent metabolism of a number of potent sEH inhibitors was evaluated. […] The first step in the metabolic transformation of the n-alkyl to n-alkanoic acid derivatives is an NAPDH dependent process carried out by cytochrome P450 dependent omega hydroxylation in rodent and human hepatic tissue preparations (see FIG. 8). When in vivo metabolism was evaluated, evidence for the beta-oxidation of the alkanoic acid derivatives was also found (see FIG. 9).

[10] = Table 2, […] enzyme, 5 min preincubation, pH 7.4, 30° C., means ± SD
[11] = Table 2, […] enzyme, 5 min preincubation, pH 7.4, 30° C., means ± SD, read-out: IC50 (μM) Human sEH

Structure (SMILES): CCCCC/C=C\C[C@H]1O[C@H]1C/C=C\C/C=C\CCCC(=O)O [11,12-EET]
relative substrate turnover of the epoxy arachidonates [1]: 8.1
Relative EET Turnover [1]: 8.1

Structure (SMILES): CCCCCOC(=O)CCCNC(=O)Nc1cccc(Cl)c1 [Compound 767, 1-(3-chlorophenyl)-3-(3-pentoxycarbonylpropyl)urea]
IC50 ([2]; Table 3, […] enzyme, 5 min preincubation, pH 7.4, 30° C., means ± SD): 0.37 ± 0.04 µM
IC50 ([3]; Table 3, […] enzyme, 5 min preincubation, pH 7.4, 30° C., means ± SD, read-out: IC50 (μM) Human sEH): 2.1 ± 0.07 µM
better inhibition than 761 ([4]; methylene carbon left versus right of the carbonyl): 20 fold

Structure (SMILES): CCCCCOC(=O)CCCNC(=O)NC1CCCCC1 [Compound 772, 1-Cyclohexyl-3-(3-pentoxycarbonylpropyl)urea]
IC50 [2, 10]: 0.05 ± 0.01 µM
IC50 [3, 11]: 1.02 ± 0.05 µM
increase of inhibitor potency over the 3-chlorophenyl analog (767) [4]: 10 fold
water solubility [6]: increases their water solubility

Structure (SMILES): CCCCCOC(=O)CCCNC(=O)NC12CC3CC(CC(C3)C1)C2 [Compound 789]
IC50 [2, 10]: 0.05 ± 0.01 µM
IC50 [3, 11]: 0.17 ± 0.01 µM
increase of inhibitor potency over the 3-chlorophenyl analog (767) [4]: 10 fold
solubility relative to the corresponding cyclohexyl derivative [6]: approximately 2 x
water solubility [6]: increases their water solubility

Structure (SMILES): CCOC(=O)C1=C(COCCN)NC(C)=C(C(=O)OC)C1c1ccccc1Cl (stereo not shown) [Norvasc]
Systolic Avg. ([8]; Norvasc 5.0 mg per day (separate experiment), W/O 950 151, W/O Norvasc 145): 143
Pulse Avg. ([8]; Norvasc 5.0 mg per day, W/O 950 97, W/O Norvasc 79): 89
Diastolic Avg. ([8]; Norvasc 5.0 mg per day, W/O 950 103, W/O Norvasc 100): 95

Structure (SMILES): COC(=O)CCCNC(=O)NC1CCCCC1 [Compound 774]
IC50 ([2]; Table 1, 0.12 μM enzyme, 5 min preincubation, pH 7.4, 30° C., [S] = 40 μM, means ± SD of three experiments): 0.33 ± 0.03 µM
IC50 [3]: 6.2 ± 0.5 µM
fold higher activity than the esters of acetic and propanoic acids (549 and 635) ([4]; for both enzymes): 8-100 fold

Structure (SMILES): CCCCC/C=C\C/C=C\C/C=C\CC1OC1CCCC(=O)O (stereo not shown) [5,6-EET]
Relative EET Turnover [1]: 0.1

Structure (SMILES): CCCCC/C=C\C/C=C\CC1OC1C/C=C\CCCC(=O)O (stereo not shown) [8,9-EET]
relative substrate turnover of the epoxy arachidonates [1]: 0.1
Relative EET Turnover [1]: 1

Results, then the molecule that gave them:

pharmacokinetics [5]: improved pharmacokinetics
IC50 ([2]; Table 7, established protocols): 0.05 ± 0.01 µM
IC50 ([3]; Table 7, established protocols, read-out: IC50 (μM) Human sEH): 0.16 ± 0.01 µM
water solubility [6]: increased water solubility
Structure (SMILES): COCCOCCCCCNC(=O)NC12CC3CC(CC(C3)C1)C2 [Compound 908]

IC50 ([2]; Table 2, 0.12 μM enzyme, 5 min preincubation, pH 7.4, 30° C., means ± SD): 0.05 ± 0.01 µM
time to reach the maximum concentration [7]: 2 h
IC50 [3, 11]: 0.1 ± 0.01 µM
solubility relative to the corresponding cyclohexyl derivative [6]: approximately 2 x
Structure (SMILES): CCCCCCCCCCCCNC(=O)NC12CC3CC(CC(C3)C1)C2 [Compound 686, 1-adamantyl-3-dodecylurea, reference compound]

metabolic stability in microsomal preparations [9]: improved stability
Structure (SMILES): O=C(NC1CCCCC1)NC12CC3CC(CC(C3)C1)C2 [Compound 192, 1-adamantyl-3-cyclohexylurea]

IC50 [2, 10]: 0.05 ± 0.01 µM
IC50 [3, 11]: 0.1 ± 0.01 µM
solubility relative to the corresponding cyclohexyl derivative [6]: approximately 2 x
Structure (SMILES): CCCCCCCCCCNC(=O)NC12CC3CC(CC(C3)C1)C2 [Compound 790, reference compound]

relative substrate turnover of the epoxy arachidonates [1]: 14.3
Relative EET Turnover [1]: 14.3
Structure (SMILES): CCCCCC1OC1C/C=C\C/C=C\C/C=C\CCCC(=O)O (stereo not shown) [14,15-EET]
